Reference: patent publication US12410160B2 (Gilead Sciences, Inc., priority 2021, dated 2025)
Like-named read-outs stand apart in the source and are kept apart here.

Tests used:
[1] = pKa analysis by capillary electrophoresis (pKa PRO Analyzer, co-solvent method); format: physicochemical; details: co-solvent method (60% to 30% methanol buffers); for pKa: methanol/aqueous co-solvent buffers
Procedure: The 10 mM DMSO stock solutions of test articles (TAs) were diluted 100-fold with either 2 mM HCl or 2 mM NaOH and methanol. The final concentration of methanol was 60%, TA concentration was 100 μM, and DMSO concentration was 1%. The TAs were transferred into 24 consecutive wells of a 96-well plate for analysis using the co-solvent method. […] All data was obtained using a pKa. PRO Analyzer (AATI, Ankey, IA) by performing four consecutive CE runs from 60% to 30% co-solvent buffers. Norfloxacin was used as a daily performance-indicating standard. The pKa values were predicted by using pKa. Estimator® software (AATI, Ankey, IA) by relating molecular weight of the TA to its mobility.

human OATP1B1 = human OATP1B1 (Homo sapiens (Human), UniProt Q9Y6L6); test: In Vitro Inhibition Assessment with Human OATP1B1 Transporter; format: in vitro ADME; details: HEK293-OATP1B1 cells, probe substrate pravastatin
Summary of the method: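 Pravastatin uptake was measured by LC-MS/MS after a 5 min exposure with inhibitor, following a 15 min inhibitor preincubation, in transfected versus mock HEK293 cells. Transport activity was derived as (transfected − mock) with compound over the same difference with solvent. IC50 is the concentration halving maximal activity; final DMSO was 0.4%.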

HepG2 cells = test: F1P Cell-Based Assay (EC50), 13C6-fructose-1-phosphate in HepG2 cells (cell culture medium or 50% human plasma)
human KHK-C = human KHK-C (Homo sapiens (Human), UniProt P50053); test: KHK Biochemical Assay (IC50), ADP-Glo, KHK-C; details: average of at least two separate assays
Summary of the method: (§1)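 ADP-Glo luminescence measured ADP made over a 4 h room-temperature reaction of ATP plus fructose, started after 30 min compound–enzyme pre-incubation. Buffer: 50 mM Hepes pH 7.4, 140 mM KCl, 5 mM MgCl2, 0.01% Triton-X. Enzyme was His-tagged, BL21 (DE3)-expressed, Ni-NTA-purified; compounds in 1:3 DMSO dilution series.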

human KHK-A = human KHK-A (Homo sapiens (Human), UniProt P50053); test: KHK Biochemical Assay (IC50), ADP-Glo, KHK-A; details: average of at least two separate assays
Summary of the method: as §1

[2] = target: KHK-C expressed in NRK-52E cells (Homo sapiens (Human), UniProt P50053); test: KHK-C Cell-based Assay (EC50), NRK CTG, fructose-mediated ATP-depletion
[3] = pH range 1.7-11.2, read-out: 1st pKa
[4] = Homo sapiens, HepG2, HepG2 cells, 50% human plasma, read-out: F1P 50% HP EC50
[5] = Homo sapiens, HepG2, read-out: F1P 10% FBS EC50, HepG2 cells, cell culture medium (10% FBS)
[6] = pH range 1.7-11.2, read-out: 2nd pKa

human OATP1B1, sequence (Q9Y6L6 whole entry): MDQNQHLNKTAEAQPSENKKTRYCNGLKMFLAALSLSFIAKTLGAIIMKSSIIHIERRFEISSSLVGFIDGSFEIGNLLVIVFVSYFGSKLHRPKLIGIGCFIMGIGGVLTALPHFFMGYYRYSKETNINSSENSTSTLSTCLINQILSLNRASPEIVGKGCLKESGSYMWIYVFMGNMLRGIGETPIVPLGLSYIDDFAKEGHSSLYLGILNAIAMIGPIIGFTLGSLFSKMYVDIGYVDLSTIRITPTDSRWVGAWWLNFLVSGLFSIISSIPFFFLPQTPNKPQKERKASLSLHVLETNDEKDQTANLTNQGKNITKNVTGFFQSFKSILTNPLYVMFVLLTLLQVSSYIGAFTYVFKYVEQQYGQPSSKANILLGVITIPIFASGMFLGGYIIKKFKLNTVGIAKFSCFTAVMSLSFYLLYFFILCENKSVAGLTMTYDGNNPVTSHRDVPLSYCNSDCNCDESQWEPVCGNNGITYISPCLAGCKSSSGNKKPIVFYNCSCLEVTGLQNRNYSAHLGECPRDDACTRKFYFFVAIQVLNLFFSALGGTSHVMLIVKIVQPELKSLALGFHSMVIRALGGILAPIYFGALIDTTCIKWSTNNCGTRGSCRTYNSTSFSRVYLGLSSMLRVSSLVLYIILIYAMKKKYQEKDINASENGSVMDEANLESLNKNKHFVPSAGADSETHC
human KHK-C, sequence (P50053 whole entry): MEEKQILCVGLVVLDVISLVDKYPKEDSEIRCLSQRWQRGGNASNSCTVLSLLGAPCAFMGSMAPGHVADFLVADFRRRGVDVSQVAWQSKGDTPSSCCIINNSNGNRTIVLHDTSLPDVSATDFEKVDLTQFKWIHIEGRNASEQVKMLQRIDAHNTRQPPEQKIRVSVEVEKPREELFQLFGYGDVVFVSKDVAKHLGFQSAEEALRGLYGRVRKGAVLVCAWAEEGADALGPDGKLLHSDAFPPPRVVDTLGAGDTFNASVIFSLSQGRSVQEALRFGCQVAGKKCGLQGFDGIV
KHK-C expressed in NRK-52E cells, sequence (P50053 whole entry): as above
human KHK-A, sequence (P50053 other isoform, or with tags, fused parts or gaps): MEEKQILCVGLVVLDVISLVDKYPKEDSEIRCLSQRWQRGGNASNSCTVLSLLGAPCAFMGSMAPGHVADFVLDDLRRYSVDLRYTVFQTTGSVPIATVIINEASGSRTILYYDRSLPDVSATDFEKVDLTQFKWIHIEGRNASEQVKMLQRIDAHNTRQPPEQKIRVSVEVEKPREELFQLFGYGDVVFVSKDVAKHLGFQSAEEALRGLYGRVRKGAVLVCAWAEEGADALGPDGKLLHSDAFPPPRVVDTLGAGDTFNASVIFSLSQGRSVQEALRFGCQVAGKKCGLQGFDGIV

SMILES	pKa [1, 3]	IC50 (human OATP1B1) [nM]	EC50 (HepG2 cells; [4]) [nM]	EC50 (HepG2 cells; [5]) [nM]	IC50 (human KHK-C) [nM]	IC50 (human KHK-A) [nM]	EC50 [2] [nM]	1st pKa ([1]; pH range 1.7-11.2)	EC50 (HepG2 cells; HepG2 cells, 50% human plasma, read-out: F1P 50% HP EC50) [nM]	EC50 (HepG2 cells; read-out: F1P 10% FBS EC50, HepG2 cells, cell culture medium (10% FBS)) [nM]	IC50 (human KHK-C; ADP-Glo) [nM]	IC50 (human KHK-A; ADP-Glo) [nM]	pKa [1, 6]	EC50 (HepG2 cells; Homo sapiens, HepG2, read-out: F1P 10% FBS EC50) [nM]	EC50 (HepG2 cells; Homo sapiens, HepG2, read-out: F1P 50% HP EC50) [nM]
C[C@H]1[C@H](O)CN1c1nc(-c2cccc([S@@](C)(=N)=O)c2)c2c(n1)C(F)(F)CC2 (single isomer, unassigned) [Example 492]	2.1	31700	22.2	20.7	9	12.2	41.8	–	–	–	–	–	–	–	–
NC1(c2ccc(-c3nc(N4CC[C@@H]4C(F)F)nc4c3CCC4(F)F)cc2)COC1 (single isomer, unassigned) [Example 687]	6	6550	–	–	1.2	2.8	6.2	–	–	–	–	–	–	7.6	14.6
C[C@H]1[C@H](F)CN1c1nc(-c2ccc([C@@H](N)CS(C)(=O)=O)cc2)c2c(n1)C(F)(F)CC2 (single isomer, unassigned) [Example 789]	–	19700	–	–	3.9	12.5	–	6.4	30.6	22.7	–	–	–	–	–
C[C@H]1CCN1c1nc2c(c(-c3cccc(C(N)=O)c3)n1)CCC2 [Example 8, (S)-3-(2-(2-methylazetidin-1-yl)-6,7-dihydro-5H-cyclopenta[d]pyrimidin-4-yl)benzamide]	4.38	1320	–	–	–	–	128	–	–	–	48.1	38.8	–	–	–
C[C@H]1CCN1c1nc2c(c(-c3ccccc3)n1)CCC2 [Example 331, 2-[(2S)-2-methylazetidin-1-yl]-4-phenyl-6,7-dihydro-5H-cyclopenta[d]pyrimidine]	4.14	–	4610	253	–	–	384	–	–	–	242	255	–	–	–
C[C@H]1CCN1c1nc2c(c(-c3ccc4c(=O)[nH]ccc4c3)n1)CCC2 [Example 364, 6-[2-[(2S)-2-methylazetidin-1-yl]-6,7-dihydro-5H-cyclopenta[d]pyrimidin-4-yl]-2H-isoquinolin-1-one]	4.32	38.9	–	–	–	–	13.1	–	–	–	3.3	10	–	–	–
C[C@H]1CCN1c1nc2c(c(-c3ccc(CN)s3)n1)CCC2 [Example 459, [5-[2-[(2S)-2-methylazetidin-1-yl]-6,7-dihydro-5H-cyclopenta[d]pyrimidin-4-yl]-2-thienyl]methanamine]	4.27	13200	–	–	6.6	11.1	42.1	–	–	–	–	–	8.65	–	–
C[C@H]1[C@H](O)CN1c1nc(-c2ccc3c(c2)S(=O)(=O)CCNC3)c2c(n1)C(F)(F)CC2 [Example 489]	5.3	2670	20.2	16.5	3.5	5.2	–	–	–	–	–	–	–	–	–
O=S1(=O)CCNCc2ccc(-c3nc(N4CC[C@@H]4CF)nc4c3CCC4(F)F)cc21 [Example 490, (R)-8-(7,7-difluoro-2-(2-(fluoromethyl)azetidin-1-yl)-6,7-dihydro-5H-cyclopenta[d]pyrimidin-4-yl)-2,3,4,5-tetrahydrobenzo[f][1,4]thiazepine 1,1-dioxide]	5.5	939	19.3	9.3	1.2	4.6	–	–	–	–	–	–	–	–	–
C[C@H]1[C@H](O)CN1c1nc(-c2ccc(C3(N)CS(=O)(=O)C3)cc2)c2c(n1)C(F)(F)CC2 [Example 491]	4.5	36000	26.2	31.9	2	24.2	35.8	–	–	–	–	–	–	–	–
N#C[C@H]1CCN1c1nc(-c2ccc(C3(N)COC3)cc2)c2c(n1)C(F)(F)CC2 [Example 711, (R)-1-(4-(4-(3-aminooxetan-3-yl)phenyl)-7,7-difluoro-6,7-dihydro-5H-cyclopenta[d]pyrimidin-2-yl)azetidine-2-carbonitrile]	6.3	12800	33.7	28.2	6.1	–	35.2	–	–	–	–	–	–	–	–
COc1ccc(-c2nc(N3C[C@@H](O)[C@@H]3C)nc3c2CCC3(F)F)cc1S(N)(=O)=O [Example 763, 5-(7,7-difluoro-2-((2S,3R)-3-hydroxy-2-methylazetidin-1-yl)-6,7-dihydro-5H-cyclopenta[d]pyrimidin-4-yl)-2-methoxybenzenesulfonamide]	1.7	2570	8	6.9	3	3.6	–	–	–	–	–	–	–	–	–
NC1(c2ccc(-c3nc(N4CC[C@@H]4C(F)(F)F)nc4c3CCC4(F)F)cc2)CS(=O)(=O)C1 [Example 802, (R)-3-amino-3-(4-(7,7-difluoro-2-(2-(trifluoromethyl)azetidin-1-yl)-6,7-dihydro-5H-cyclopenta[d]pyrimidin-4-yl)phenyl)thietane 1,1-dioxide]	4.6	10600	–	–	–	–	–	–	–	–	–	–	–	–	–

More lines, main results first:

pKa [1, 3]	IC50 (human OATP1B1) [nM]	EC50 (HepG2 cells; [4]) [nM]	EC50 (HepG2 cells; [5]) [nM]	IC50 (human KHK-C) [nM]	IC50 (human KHK-A) [nM]	EC50 [2] [nM]	1st pKa ([1]; pH range 1.7-11.2)	EC50 (HepG2 cells; HepG2 cells, 50% human plasma, read-out: F1P 50% HP EC50) [nM]	EC50 (HepG2 cells; read-out: F1P 10% FBS EC50, HepG2 cells, cell culture medium (10% FBS)) [nM]	IC50 (human KHK-C; ADP-Glo) [nM]	IC50 (human KHK-A; ADP-Glo) [nM]	pKa [1, 6]	SMILES	EC50 (HepG2 cells; Homo sapiens, HepG2, read-out: F1P 10% FBS EC50) [nM]	EC50 (HepG2 cells; Homo sapiens, HepG2, read-out: F1P 50% HP EC50) [nM]
2.5	> 40000	2.3	1.1	1.5	0.7	16	–	–	–	–	–	–	COc1ccc(-c2nc(N3C[C@@H](O)[C@@H]3C)nc3c2CCC3(F)F)cc1[S@@](C)(=N)=O (single isomer, unassigned) [Example 495]	–	–
4.27	10200	–	–	–	–	177	–	–	–	2.1	4.2	9.27	C[C@H]1CCN1c1nc2c(c(-c3ccc(CN)cc3)n1)CCC2 [Example 188, [4-[2-[(2S)-2-methylazetidin-1-yl]-6,7-dihydro-5H-cyclopenta[d]pyrimidin-4-yl]phenyl]methanamine]	–	–
3.29	1690	–	–	–	–	7.7	–	–	–	1	3.4	6.64	C[C@H]1CCN1c1nc2c(c(-c3ccc4c(N)nccc4c3)n1)CCC2 [Example 378, 6-[2-[(2S)-2-methylazetidin-1-yl]-6,7-dihydro-5H-cyclopenta[d]pyrimidin-4-yl]isoquinolin-1-amine]	–	–
4.31	–	3.1	1.3	–	–	2.6	–	–	–	4.6	4.1	9.19	C[C@H]1CCN1c1nc2c(c(-c3ccc4c(c3)CCNC4)n1)CCC2 [Example 379, 6-[2-[(2S)-2-methylazetidin-1-yl]-6,7-dihydro-5H-cyclopenta[d]pyrimidin-4-yl]-1,2,3,4-tetrahydroisoquinoline]	–	–
10.3	3010	20.5	7.3	0.5	4	11.4	–	–	–	–	–	–	C[C@H]1[C@H](O)CN1c1nc(-c2ccc3c(c2)OC[C@@H]3NS(C)(=O)=O)c2c(n1)C(F)(F)CC2 [Example 466, N—((R)-6-(7,7-difluoro-2-((2S,3R)-3-hydroxy-2-methylazetidin-1-yl)-6,7-dihydro-5H-cyclopenta[d]pyrimidin-4-yl)-2,3-dihydrobenzofuran-3-yl)methanesulfonamide]	–	–
6.1	23300	13.2	8.4	2	7	6.4	–	–	–	–	–	–	NC1(c2ccc(-c3nc(N4CC[C@@H]4CF)nc4c3CCC4(F)F)cc2)COC1 [Example 471, (R)-3-(4-(7,7-difluoro-2-(2-(fluoromethyl)azetidin-1-yl)-6,7-dihydro-5H-cyclopenta[d]pyrimidin-4-yl)phenyl)oxetan-3-amine]	–	–
6.6	5010	22.4	14.3	2.7	–	7.4	–	–	–	–	–	–	C[C@H]1[C@H](O)CN1c1nc(-c2ccc(C3(N)CC(F)(F)C3)cc2)c2c(n1)C(F)(F)CC2 [Example 646, (2S,3R)-1-[4-[4-(1-amino-3,3-difluoro-cyclobutyl)phenyl]-7,7-difluoro-5,6-dihydrocyclopenta[d]pyrimidin-2-yl]-2-methyl-azetidin-3-ol]	–	–
